This series in a line: Olopatadine solubility in water and in formulations. The format is physicochemical. The conditions noted are these: for solubility: Concentration (mg/mL) of solubilized olopatadine.

For one compound, solubility and solubility in water results are on record in patent US8791154B2 (Alcon Research, Ltd., priority 2011, dated 2014).

In brackets after ≈: the same amount, converted by molar mass.

For the compound `CN(C)CC/C=C1/c2ccccc2COc2ccc(CC(=O)O)cc21` [Olopatadine], the solubility came out at 7460 µg/mL (≈ 22.1 mM) (formulation with PVP K29/32, SBE-CD, PEG 400 and HPMC, pH 6.96, aqueous with cosolvent or surfactant or cyclodextrin, 4% PVP K29/32, 1.5% SBE-CD, 4% PEG 400, 0.6% HPMC, final pH 6.96); 8660 µg/mL (≈ 25.7 mM) (formulation with PVP K29/32, SBE-CD, PEG 400 and HPMC, pH 7.01, aqueous with cosolvent or surfactant or cyclodextrin, 4% PVP K29/32, 2.3% SBE-CD, 4% PEG 400, 0.6% HPMC, final pH 7.01); 8620 µg/mL (≈ 25.5 mM) (formulation with PVP K29/32, SBE-CD, PEG 400 and HPMC, pH 7.02, aqueous with cosolvent or surfactant or cyclodextrin, 4% PVP K29/32, 2.2% SBE-CD, 4% PEG 400, 0.6% HPMC, final pH 7.02); 9040 µg/mL (≈ 26.8 mM) (formulation with PVP K29/32, SBE-CD, PEG 400 and HPMC, pH 7.04, aqueous with cosolvent or surfactant or cyclodextrin, 4% PVP K29/32, 2.5% SBE-CD, 4% PEG 400, 0.6% HPMC, final pH 7.04); 8110 µg/mL (≈ 24 mM) (formulation with PVP K29/32, SBE-CD, PEG 400 and HPMC, pH 7.06, aqueous with cosolvent or surfactant or cyclodextrin, 4% PVP K29/32, 2.0% SBE-CD, 4% PEG 400, 0.6% HPMC, final pH 7.06); 6130 µg/mL (≈ 18.2 mM) (pH 6.97, aqueous with cosolvent or surfactant or cyclodextrin, 4% PVP K29/32, 1.5% SBE-CD, 4% PEG 400, no HPMC, final pH 6.97). This compound showed a solubility (pH 6.97, aqueous with cosolvent or surfactant or cyclodextrin, 4% PVP K29/32, 2.0% SBE-CD, 4% PEG 400, no HPMC, final pH 6.97) of 6740 µg/mL (≈ 20 mM); a solubility (pH 6.98, aqueous with cosolvent or surfactant or cyclodextrin, 4% PVP K29/32, 2.5% SBE-CD, 4% PEG 400, no HPMC, final pH 6.98) of 7340 µg/mL (≈ 21.8 mM); a solubility (pH 7.01, aqueous with cosolvent or surfactant or cyclodextrin, 4% PVP K29/32, 2.2% SBE-CD, 4% PEG 400, no HPMC, final pH 7.01) of 6970 µg/mL (≈ 20.7 mM); a solubility (pH 7.02, aqueous with cosolvent or surfactant or cyclodextrin, 4% PVP K29/32, 2.3% SBE-CD, 4% PEG 400, no HPMC, final pH 7.02) of 7160 µg/mL (≈ 21.2 mM). For the same compound, the solubility in water result (water, pH about 7.0, room temperature, olopatadine by itself) is “about 0.18 w/v %”.
